Reference: patent US10159268B2, “Reduced sodium food products” (GENERAL MILLS, INC., priority 2013, dated 2018)

How the values were obtained:
[1] = Na-solution DAP test: trained panel rates saltiness of compounds in sodium solution; type: in vivo; design: key: DAP score; >3.1 indicates saltiness or salt enhancement; settings: single compound in sodium solution; best DAP score of tested concentrations 0.1, 1 and 10 ppm; DAP score greater than 3.1 indicates saltiness or salt enhancement
Procedure: (§1) Briefly, each individual tested compound was placed in water and in sodium solution to test saltiness and saltiness enhancement potential. Tests in water were executed in a compound concentration of 10 ppm. Tests in sodium solution were executed in compound concentrations of 0.1, 1 and 10 ppm. Two control sodium solutions with known organoleptic salt intensities were provided as references for each test. The test for individual compounds was also conducted using simple broth instead of sodium solution. A number of compound combinations identified from the Na-solution DAP test were used for the broth DAP test. Tests were executed with a trained panel of 9-12 assessors. For Na-solution DAP tests, a DAP score of greater than 3.1 indicates saltiness or salt enhancement. The DAP score can be correlated with a sodium reduction potential by subtracting 3.1 from the DAP score. […] For broth DAP tests, a DAP score of greater than 7.6 indicates saltiness or salt enhancement. The DAP score can be correlated with a sodium reduction potential by subtracting 7.6 from the DAP score.

[2] = Broth DAP test: trained panel rates saltiness of compounds in simple broth; type: in vivo; design: key: DAP score; >7.6 indicates saltiness or salt enhancement in broth; settings: single compound in simple broth; best DAP score of tested concentrations 0.1, 1 and 10 ppm; DAP score greater than 7.6 indicates saltiness or salt enhancement
Procedure: as §1

Row | Compound | DAP in Na-Sol. [1] | DAP in Broth [2]
1 | CC(C)CNC(=O)/C=C/C=C/CCCCCC/C=C/c1ccc2c(c1)OCO2 [Compound 15, Guineensine] | 3.5 | 8.1
2 | COc1cc(COC(=O)CCCC/C=C/C(C)C)ccc1O [Compound 13, Capsiate] | 3.8 | 7.9
3 | COC1CC(OC2CCC3(C=O)C(CCC4C3CCC3(C)C(C5=CC(=O)OC5)CCC43O)C2)OC(C)C1O (stereo not shown) [Compound 77, Apocannoside] | 3.4 | 8.1
4 | C=C[C@@]1(C)CC(=O)C2[C@]3(C)C(C[C@@H](O)[C@@]2(O)C1=O)C(C)(C)[C@H](OC(C)=O)[C@H](OC(C)=O)[C@@H]3OC(=O)c1ccccc1 (stereo partly shown) [Compound 32, Orthosiphol I] | 3.5 | 8.1
5 | COc1cc2c(c(OC)c1OC)-c1c(cc3c(c1OC)OCO3)CC(C)C(C)C2 (stereo not shown) [Compound 46, Schizandrin B] | 3.6 | 7.8
6 | CCCCCCCCCCNC(C)=O [Compound 84, N-Decyl acetamide] | 3.8 | 8.1
7 | C/C=C(\C)C(=O)O[C@H]1C[C@@H](OC(C)=O)[C@@]2(C)CO[C@@H]3C2[C@@]1(C)[C@@H](CC(=O)OC)[C@]1(C)C2=C(C)[C@H](c4ccoc4)C[C@H]2O[C@H]31 (stereo partly shown) [Compound 58, Salannin] | 3.3 | 8.0
8 | CCCC(=O)c1c(OC)cc(OC)c(CCO)c1O [Compound 54] | 3.4 | 8.1
9 | CC(C)(O)[C@@H](O)COc1c2ccoc2cc2oc(=O)ccc12 [Compound 63, Prangol] | 3.5 | 8.0
10 | CC1(C)CC[C@]2(C(=O)O)CC[C@]3(C)C(=CCC4[C@@]5(C)C[C@@H](O)[C@H](O)C(C)(C)C5CC[C@]43C)C2C1 (stereo partly shown) [Compound 42, Maslinic acid, Crategolic acid] | 3.1 | 8.1
11 | CC(C)=CCOc1c2occc2cc2ccc(=O)oc12 [Compound 64, Imperatorin] | 3.7 | 7.8
12 | C[C@@H]1C[C@@H]2O[C@@]3(O[C@@H]2C(C)(C)O)C(O)[C@@]2(C)C4CCC5C(C)(C)[C@@H](OC6OC[C@H](O)[C@@H](O)[C@@H]6O)CC[C@@]56C[C@@]46CC[C@]2(C)C13 (stereo partly drawn) [Compound 41, Cimigoside; b-D-Xylopyranoside] | 3.9 | 7.5
13 | CCC=CC=CC(O)CC=CCCCCCCCC(=O)O (stereo not shown) [Compound 86, 12-hydroxy-9,13,15-Octadecatrienoic acid] | 3.9 | 8.0
14 | CC(=O)O[C@@H]1C[C@H]2C(C)(C)C(=O)C=C[C@]2(C)[C@H]2CC[C@]3(C)C(=CC(=O)[C@H]3c3ccoc3)[C@@]21C [Compound 74, Azadiradione] | 3.2 | 7.7
15 | C=CCCCCCCCCCCCC(CC(O)COC(C)=O)OC(C)=O (stereo not shown) [Compound 83, 16-Heptadecene-1,2,4-triol, 1,4-diacetate] | 4.2 | 8.1
16 | CCC=CC(=O)CCc1ccccc1 [Compound 11, a 1-Ph-4-hepten-3-one] | 2.6 | 8.1
17 | CCC(O)CC(=O)CCc1ccccc1 (stereo not shown) [Compound 12, a 1-Ph-5-OH-3-heptanone] | 4 | 7.6
18 | C=C[C@@]1(C)CC(=O)C2[C@]3(C)C(C[C@@H](OC(C)=O)[C@@]2(O)C1=O)C(C)(C)[C@H](O)[C@H](OC(C)=O)[C@@H]3OC(=O)c1ccccc1 (stereo partly shown) [Compound 33, Orthosiphol M] | 3.4 | 7.7
19 | CC(C)C(=O)c1c2c(c3oc(=O)cc(-c4ccccc4)c3c1O)CC(C(C)(C)O)O2 (stereo not shown) [Compound 60, Mammea A/AD cyclo F] | 3.8 | 8.1
20 | CCCCCCCCCCC[C@H](O)CC(=O)CCc1ccc(O)c(OC)c1 [Compound 1, 12-Gingerol] | 3.6 | 7.8
21 | COc1cc(C[C@@H](CO)[C@H](CO)Cc2ccc(O[C@@H]3O[C@H](CO)[C@@H](O)[C@H](O)[C@H]3O)c(OC)c2)ccc1O [Compound 48, Secoisolariciresinol; Secoisolariciresin-4-yl b-D-glucopyranoside] | 3.7 | 7.8
22 | CCCCCCCCC/C=C/C(=O)CCc1ccc(O)c(OC)c1 [Compound 2, [10]-Shogaol] | 3.5 | 7.8
23 | C/C=C(\C)C(=O)O[C@H]1[C@H](O)[C@]2(CO)[C@H](O)C[C@]3(C)C(=CCC4[C@@]5(C)CC[C@H](O[C@@H]6O[C@H](C(=O)O)C(O[C@@H]7O[C@H](CO)[C@@H](O)[C@H](O)[C@H]7O)[C@H](O)[C@H]6O[C@@H]6O[C@H](CO)[C@@H](O)[C@H](O)[C@H]6O)[C@](C)(CO)C5CC[C@]43C)[C@@H]2CC1(C)C (stereo partly shown) [Compound 34, Aesculioside A] | 3.9 | 7.7
